In PubChem BioAssay AID1963838 (Molecular Pharmacology Branch, DTP, NCI, 2024):

Test system: 855422-203-R-J1-PDC complex spheroid viability
Assay: Anticancer human tumor 855422-203-R-J1-PDC patient-derived bladder carcinoma cell line growth inhibition [POLQ]
Details: for IC50: curve of first compound; for viability, T/C: stronger effect = lower value
How it was run: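 Patient-derived tumour cells were co-cultured with HUVEC and mesenchymal stem cells as multicellular spheroids at 37 °C. They were treated with POLQ inhibitors (novobiocin, ART-558, RP6685) alone or combined with other agents. Top concentrations were at or near clinical Cmax (otherwise 10 microM; SN-38 at 1 microM), decreasing in half-log steps.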

[1] = second compound 0.0316 µM, first compound 0.0316 µM
[2] = second compound 0.0316 µM, first compound 0.1 µM
[3] = second compound 0.1 µM, first compound 0.0316 µM
[4] = second compound 0.1 µM, first compound 0.1 µM
[5] = second compound 0.316 µM, first compound 0.0316 µM
[6] = second compound 0.316 µM, first compound 0.1 µM
[7] = second compound 1 µM, first compound 0.0316 µM
[8] = second compound 1 µM, first compound 0.1 µM
[9] = second compound 3.16 µM, first compound 0.0316 µM
[10] = second compound 3.16 µM, first compound 0.1 µM
[11] = second compound 10 µM, first compound 0.0316 µM
[12] = second compound 10 µM, first compound 0.1 µM
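Note: spheroids exposed to compounds for seven days before readout.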

CCCS(=O)(=O)Nc1ccc(F)c(C(=O)c2c[nH]c3ncc(-c4ccc(Cl)cc4)cc23)c1F + COC1C(OC(N)=O)C(O)C(Oc2ccc3c(O)c(NC(=O)c4ccc(O)c(CC=C(C)C)c4)c(=O)oc3c2C)OC1(C)C
IC50 (second compound 0.0316 µM): 5.93 µM | IC50 (second compound 0.1 µM): 5.85 µM | IC50 (second compound 0.316 µM): 5.94 µM | IC50 (second compound 1 µM): 5.47 µM | IC50 (second compound 3.16 µM): 5.74 µM | IC50 (second compound 10 µM): 5.88 µM | viability, T/C [1]: 112% | viability, T/C [2]: 94.6% | viability, T/C (second compound 0.0316 µM, first compound 0.316 µM): 113% | viability, T/C (second compound 0.0316 µM, first compound 1 µM): 116% | viability, T/C (second compound 0.0316 µM, first compound 3.16 µM): 113% | viability, T/C (second compound 0.0316 µM, first compound 10 µM): 0.27% | viability, T/C [3]: 117% | viability, T/C [4]: 108% | viability, T/C (second compound 0.1 µM, first compound 0.316 µM): 115% | viability, T/C (second compound 0.1 µM, first compound 1 µM): 107% | viability, T/C (second compound 0.1 µM, first compound 3.16 µM): 106% | viability, T/C (second compound 0.1 µM, first compound 10 µM): 1.29% | viability, T/C [5]: 118% | viability, T/C [6]: 96.7% | viability, T/C (second compound 0.316 µM, first compound 0.316 µM): 114% | viability, T/C (second compound 0.316 µM, first compound 1 µM): 107% | viability, T/C (second compound 0.316 µM, first compound 3.16 µM): 109% | viability, T/C (second compound 0.316 µM, first compound 10 µM): 1.4% | viability, T/C [7]: 119% | viability, T/C [8]: 117% | viability, T/C (second compound 1 µM, first compound 0.316 µM): 108% | viability, T/C (second compound 1 µM, first compound 1 µM): 94.2% | viability, T/C (second compound 1 µM, first compound 3.16 µM): 98.7% | viability, T/C (second compound 1 µM, first compound 10 µM): 0.24% | viability, T/C [9]: 102% | viability, T/C [10]: 111% | viability, T/C (second compound 3.16 µM, first compound 0.316 µM): 110% | viability, T/C (second compound 3.16 µM, first compound 1 µM): 118% | viability, T/C (second compound 3.16 µM, first compound 3.16 µM): 103% | viability, T/C (second compound 3.16 µM, first compound 10 µM): 0.36% | viability, T/C [11]: 108% | viability, T/C [12]: 108% | viability, T/C (second compound 10 µM, first compound 0.316 µM): 96.2% | viability, T/C (second compound 10 µM, first compound 1 µM): 116% | viability, T/C (second compound 10 µM, first compound 3.16 µM): 110% | viability, T/C (second compound 10 µM, first compound 10 µM): 0.68%

CC[C@@]1(O)C(=O)OCc2c1cc1n(c2=O)Cc2cc3c(CN(C)C)c(O)ccc3nc2-1 + COC1C(OC(N)=O)C(O)C(Oc2ccc3c(O)c(NC(=O)c4ccc(O)c(CC=C(C)C)c4)c(=O)oc3c2C)OC1(C)C
IC50 (second compound 0.0316 µM): 0.0352 µM | IC50 (second compound 0.1 µM): 0.0303 µM | IC50 (second compound 0.316 µM): 0.0302 µM | IC50 (second compound 1 µM): 0.0277 µM | IC50 (second compound 3.16 µM): 0.0233 µM | IC50 (second compound 10 µM): 0.0225 µM | viability, T/C (second compound 0.0316 µM, first compound 0.000316 µM): 125% | viability, T/C (second compound 0.0316 µM, first compound 0.001 µM): 123% | viability, T/C (second compound 0.0316 µM, first compound 0.00316 µM): 116% | viability, T/C (second compound 0.0316 µM, first compound 0.01 µM): 126% | viability, T/C [1]: 53.5% | viability, T/C [2]: 14.7% | viability, T/C (second compound 0.1 µM, first compound 0.000316 µM): 108% | viability, T/C (second compound 0.1 µM, first compound 0.001 µM): 111% | viability, T/C (second compound 0.1 µM, first compound 0.00316 µM): 104% | viability, T/C (second compound 0.1 µM, first compound 0.01 µM): 113% | viability, T/C [3]: 47.8% | viability, T/C [4]: 11.8% | viability, T/C (second compound 0.316 µM, first compound 0.000316 µM): 116% | viability, T/C (second compound 0.316 µM, first compound 0.001 µM): 110% | viability, T/C (second compound 0.316 µM, first compound 0.00316 µM): 122% | viability, T/C (second compound 0.316 µM, first compound 0.01 µM): 101% | viability, T/C [5]: 48.2% | viability, T/C [6]: 11.7% | viability, T/C (second compound 1 µM, first compound 0.000316 µM): 116% | viability, T/C (second compound 1 µM, first compound 0.001 µM): 124% | viability, T/C (second compound 1 µM, first compound 0.00316 µM): 112% | viability, T/C (second compound 1 µM, first compound 0.01 µM): 91.7% | viability, T/C [7]: 44.7% | viability, T/C [8]: 10.6% | viability, T/C (second compound 3.16 µM, first compound 0.000316 µM): 112% | viability, T/C (second compound 3.16 µM, first compound 0.001 µM): 108% | viability, T/C (second compound 3.16 µM, first compound 0.00316 µM): 109% | viability, T/C (second compound 3.16 µM, first compound 0.01 µM): 112% | viability, T/C [9]: 28.4% | viability, T/C [10]: 11.7% | viability, T/C (second compound 10 µM, first compound 0.000316 µM): 117% | viability, T/C (second compound 10 µM, first compound 0.001 µM): 107% | viability, T/C (second compound 10 µM, first compound 0.00316 µM): 117% | viability, T/C (second compound 10 µM, first compound 0.01 µM): 98.9% | viability, T/C [11]: 29.6% | viability, T/C [12]: 16.2%
